Results published in article PMC3457943, “Inhibition of poly(ADP-ribose) Polymerase Interferes with Trypanosoma cruzi Infection and Proliferation of the Parasite” (PLoS ONE, 2012).
Read-outs that look alike come from different tables or passages of the source.

Assays:
T. cruzi amastigotes = system: T. cruzi amastigotes; set-up: method as in PMID 6330132; conditions: millimolar concentrations, mainly axenic amastigote cultures; cited from earlier work
TcPARP [1] = biological target: TcPARP (Trypanosoma cruzi, UniProt Q4PQV7); assay: Homogeneous fluorometric TcPARP activity assay (remaining NAD+); assay type: biochemical; conditions: 10 nM TcPARP, 500 nM NAD+
TcPARP (Trypanosoma cruzi, UniProt Q4PQV7), sequence (Q4PQV7 1-592): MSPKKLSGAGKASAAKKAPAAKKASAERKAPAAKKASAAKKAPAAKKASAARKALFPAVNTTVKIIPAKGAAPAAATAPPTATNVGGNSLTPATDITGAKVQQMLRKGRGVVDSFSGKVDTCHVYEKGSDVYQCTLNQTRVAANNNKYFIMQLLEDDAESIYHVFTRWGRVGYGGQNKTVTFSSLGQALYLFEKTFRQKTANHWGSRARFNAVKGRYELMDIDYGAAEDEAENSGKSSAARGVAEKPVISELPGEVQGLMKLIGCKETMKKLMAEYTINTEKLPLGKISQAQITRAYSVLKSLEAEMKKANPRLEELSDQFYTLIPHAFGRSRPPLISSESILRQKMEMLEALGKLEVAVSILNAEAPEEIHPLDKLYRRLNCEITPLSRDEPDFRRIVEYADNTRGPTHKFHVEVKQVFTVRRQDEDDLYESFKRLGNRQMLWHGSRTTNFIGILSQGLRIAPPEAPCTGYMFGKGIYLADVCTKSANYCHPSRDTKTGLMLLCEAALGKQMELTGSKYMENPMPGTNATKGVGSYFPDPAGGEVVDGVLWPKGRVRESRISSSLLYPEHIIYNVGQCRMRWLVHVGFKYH
Protocol: (§1) Enzymatic activity was measured using a fluorometric assay, which quantifies the remaining NAD^+ after the enzymatic reaction, [10]. Briefly, TcPARP was incubated with 500 nM NAD^+ in a 96-well U-bottom black propylene plate (Greiner BioOne) in a final volume of 50 µl. The reaction was carried out at 25°C with shaking at 300 rpm using PST-60 HL plus Thermo Shaker (Biosan, Riga, Latvia). The reaction was terminated by the addition of 20 µl of 2 M KOH and 20 µl of 20% acetophenone in ethanol, and plate was incubated at room temperature for 10 minutes. Next, 90 µl of 88% formic acid was added and the plate was incubated at room temperature for 20 minutes. The fluorescence was measured on a Fluoroskan Ascent FL (Thermo Labsystems, Waltham, MA) using excitation at 355 nm and emission at 460 nm. The activity assay was optimized for TcPARP by assaying the effect of pH, DNA concentration, and various additives for the activity of the protein.
(§2) A small in-house library of known PARP inhibitors was screened to evaluate their inhibitory effect against TcPARP. The inhibitor stock solutions were prepared at 10 mM in 100% DMSO and stored at −20°C, except in the case of 3-aminobenzamide, which was prepared at a stock concentration of 1 M in 100% DMSO. The compounds were screened in duplicates at 10 µM and 1 µM concentrations with separate controls for each including only NAD^+ and the compound, but not TcPARP. The protein concentration in the reactions was 10 nM.
(§3) The IC50 value for the first generation PARP inhibitor 3-AB was determined as a reference value. The separate data points were measured in quadruplicates. […] The fluorescence signal was converted to inhibition percentage and fitted using sigmoidal dose-response fitting with variable slope (Graphpad Prism). The curves were extrapolated to 0% and 100% of inhibition by setting their inhibitor concentration 2 log units below or above the first and the last inhibitor concentration, respectively.

hPARP-1 = conditions: cited from earlier work
T. cruzi epimastigotes [2] = assay: Epimastigote growth inhibition assay (OD 600 nm); assay type: cell-based, Trypanosoma cruzi
Protocol: T. cruzi epimastigotes were grown in LIT complete medium for 4 days up to a parasite density of 10^7 parasites/ml. The culture was placed in 96-well sterile plates in 100 µl aliquots and PARP inhibitors were added. Nifurtimox and β-lapachone were used as control compounds. DMSO control was used at 1% v/v concentration. Optical density of the cultures was determined at 600 nm each day for four days to follow parasite growth. Controls for LIT growth medium bearing no parasites were also performed. In all experiments performed, conditions were tested in triplicates. Significance of the results were analysed with one-way ANOVA using GraphPad Prism version 5.03 for Windows (GraphPad Software).

T. cruzi epimastigotes [3] = system: T. cruzi epimastigotes; set-up: method as in PMID 17936287; conditions: millimolar concentrations; cited from earlier work
[4] = system: pADPr formation in T. cruzi epimastigotes; assay: In vivo inhibition of pADPr formation in epimastigotes challenged with hydrogen peroxide (Western blot); assay type: cell-based, Trypanosoma cruzi; conditions: 30 min pre-incubation, 300 µM hydrogen peroxide 10 min
Protocol: Cell viability was assessed by direct microscopic examination.
Trypanosoma cruzi epimastigotes were grown in LIT complete medium for 4 days up to a parasite density of 10^7 parasites/ml. Parasites were collected by centrifugation at 750×g for 5 minutes and resuspended in PBS-Glucose 2%. T. cruzi epimastigotes were pre-incubated in the presence of inhibitors for 30 minutes and treated with 300 µM hydrogen peroxide for 10 minutes. Cells were harvested by centrifugation at 1500×g, washed with PBS and resuspended in lysis buffer (50 mM Tris–HCl pH 8.0, 1.0 mM EDTA, 10% (v/v) glycerol, 10 mM 2-mercaptoethanol). Protease inhibitors 1 µg/mL trans-epoxysuccinyl-L-leucylamido(4-guanidino) butane (E-64), […], 1 mM phenylmethylsulfonylfluoride (PMSF), and 0.1 mM Na-tosyl-L-lysine chloro-methyl ketone (TLCK) and inhibitor 3-AB (1 mM) were added. Cells were lysed with an Ultrasonic Processor Model W385 Sonicator (Heat Systems-Ultrasonic Inc. Plainview) and the whole extract obtained was used for Western blot. 30 µg of protein were run on 10% SDS–PAGE gel and transferred to Amersham Hybond-ECL nitrocellulose membrane (GE healthcare), according to the manufacturer's instructions. […] The signal was detected with the Western Lightning Plus-ECL (PerkinElmer).

TcPARP [5] = assay: Homogeneous fluorometric TcPARP activity assay (remaining NAD+); assay type: biochemical, Trypanosoma cruzi; conditions: TcPARP IC50 versus literature hPARP-1 IC50
Protocol: as §1, §2, §3

[6] = system: pADPr formation in human cells; set-up: method as in earlier work; conditions: cited from earlier work
[7] = system: Trypanosoma cruzi infection of Vero cells; assay: Trypanosoma cruzi infection of Vero cells; assay type: cell-based
Protocol: (§4) Vero cells were cultured in D-MEM medium (Gibco), supplemented with 2 mM L-glutamine, 10% (v/v) FCS, 100 U/ml penicillin and 100 mg/l streptomycin. The wild type (Sigma-Aldrich) and PARP silenced (sh_PARP) pulmonary adenocarcinoma A549 cell lines were provided by Dr. Virág and Dr. Erdélyi, from the University of Debrecen, Hungary. A549 cells were grown in RPMI-1640 medium (Gibco), supplemented with 2 mM L-glutamine, 1 mM Sodium Pyruvate, 10% (v/v) FCS, 100 U/ml penicillin and 100 mg/l streptomycin.
Trypomastigotes were collected by centrifugation of the supernatant of previously infected cultures at 1500×g at room temperature for 7 minutes and incubated for 3 hours at 37°C in order to allow the trypomastigotes to move from the pellet into the supernatant. After this period, the supernatant was collected and trypomastigotes were counted in a Neubauer chamber. […] For this, 50 trypomastigotes/cell were added to the medium of 24 hour-old monolayers and incubated for 24 hours at 37°C, after which they were removed by changing the cell culture medium. Infections were performed in the media above indicated, but supplemented with 3% (v/v) FCS.
The infection was allowed to proceed and growth medium was changed periodically during the first 5 days. […] At the indicated days, cells were fixed and stained by May Grünwald Giemsa technique. Cells were visualized using an Olympus BX41 microscope. Amastigotes and cells were counted using the ImageJ software in at least 7 microscopic fields. […] Alternatively, trypomastigotes in the supernatant of the cell cultures were counted without prior fixation on a Neubauer Chamber at the indicated days. All experiments were performed in triplicates. Significance of the results were analysed with two-way ANOVA using GraphPad Prism version 5.03 for Windows (GraphPad Software).

Vero cells = assay: Growth of uninfected Vero cells; assay type: cell-based; conditions: presence or absence of Olaparib
[8] = system: Trypanosoma cruzi infection of A549 wild type cells; assay: Trypanosoma cruzi infection of A549 cells; assay type: cell-based; conditions: 25 nM
Protocol: as §4
Trypomastigotes were collected by centrifugation of the supernatant of previously infected cultures at 1500×g at room temperature for 7 minutes and incubated for 3 hours at 37°C in order to allow the trypomastigotes to move from the pellet into the supernatant. After this period, the supernatant was collected and trypomastigotes were counted in a Neubauer chamber. […]
The infection was allowed to proceed and growth medium was changed periodically during the first 5 days. […] Amastigotes and cells were counted using the ImageJ software in at least 7 microscopic fields. […] Alternatively, trypomastigotes in the supernatant of the cell cultures were counted without prior fixation on a Neubauer Chamber at the indicated days. […] Significance of the results were analysed with two-way ANOVA using GraphPad Prism version 5.03 for Windows (GraphPad Software).

[9] = read-out: TcPARP pIC50±SE (converted)

SMILES	IC50 (TcPARP [1]; read-out: TcPARP IC50) [nM]	IC50 (TcPARP [1]; [9]) [nM]	IC50 (hPARP-1) [nM]	other results
COc1cccc(C(N)=O)c1 [3-methoxybenzamide]	–	–	–	inhibition of differentiation of amastigotes to trypomastigotes (T. cruzi amastigotes): able to inhibit differentiation of amastigotes to trypomastigotes
Nc1ccc2c3c(cccc13)C(=O)NC2=O [Compound 4-ANI, 8-amino-3-azatricyclo[7.3.1.0^{5,13}]trideca-1(12),5,7,9(13),10-pentaene-2,4-dione]	43	42.7	22	inhibition of pADPr formation in parasites ([4]; 215 nM): did not show complete inhibition
Nc1ncnc2c1ncn2[C@@H]1O[C@H](C(=O)N2CCN(CC(=O)Nc3cccc4c3CNC4=O)CC2)[C@@H](O)[C@H]1O [EB-47, 2-(4-{[(2S,3S,4R,5R)-5-(6-amino-9H-purin-9-yl)-3,4-dihydroxyoxolan-2-yl]carbonyl}piperazin-1-yl)-N-(1-oxo-2,3-dihydro-1H-isoindol-4-yl)acetamide]	–	–	45	selectivity for TcPARP over hPARP-1 (TcPARP [5]): approximately five-fold; inhibition of pADPr formation in parasites ([4]; 43 nM): did not inhibit TcPARP at all; inhibition of pADPr formation in human cells [6]: inhibit pADPr formation
CC1CS(=O)(=O)CCN1/N=C/c1ccc([N+](=O)[O-])o1 (centres unmarked) [Nifurtimox]	–	–	–	effect on epimastigote growth (T. cruzi epimastigotes [2]; 2.5 µM): small effect
O=C(c1cc(Cc2n[nH]c(=O)c3ccccc23)ccc1F)N1CCN(C(=O)C2CC2)CC1 [Olaparib, 4-({3-[(4-cyclopropanecarbonylpiperazin-1-yl)carbonyl]-4-fluorophenyl}methyl)-1,2-dihydrophthalazin-1-one]	3.4	3.39	–	number of trypomastigotes in the supernatant ([7]; 25 nM): no significant difference; number of amastigotes per cell ([7]; 25 nM in growth medium): decrease in the number of amastigotes per cell; % of Infected Cells, Day 2 ([7]; Olaparib 25 nM, mean±SD): 38.67±7.68%; % of Infected Cells, Day 4 ([7]; Olaparib 25 nM, mean±SD): 13.54±3.40 %; % of Infected Cells, Day 6 ([7]; Olaparib 25 nM, mean±SD): 22.03±2.36 %; growth of uninfected Vero cells (Vero cells): did not alter the growth of the cell line; decrease in growth of the parasites (T. cruzi epimastigotes [2]; 25 nM): 50%; effect on epimastigote growth (T. cruzi epimastigotes [2]; 25 nM): diminished epimastigote growth significantly; number of amastigotes per cell ([8]; day 6 post-infection): markedly decreased; number of trypomastigotes in the growth medium ([8]; day 9 post-infection): no significant difference
C[C@]1(c2nc3c(C(N)=O)cccc3[nH]2)CCCN1 [Veliparib, 2-[(2R)-2-methylpyrrolidin-2-yl]-1H-1,3-benzodiazole-4-carboxamide]	83	83.2	–	Ki (hPARP-1): 5 nM
CC1(C)CCC2=C(O1)c1ccccc1C(=O)C2=O [β-lapachone]	–	–	–	effect on epimastigote growth (T. cruzi epimastigotes [2]; 2.5 µM): small effect

The next lines start with results.

IC50 (TcPARP [1]; read-out: TcPARP IC50) [nM]	IC50 (TcPARP [1]; [9]) [nM]	SMILES	IC50 (hPARP-1) [nM]	other results
180	–	Cn1cccc1/C=C1\C(=O)NC(=O)c2ccccc21 [BYK204165, (4Z)-4-[(1-methyl-1H-pyrrol-2-yl)methylidene]-1,2,3,4-tetrahydroisoquinoline-1,3-dione]	45	TcPARP pIC50±SE (TcPARP [1]): 6.74±0,090
170	174	NC(=O)c1cccc2ncc(-c3ccc(Cl)cc3)nc12 [CNQ, 3-(4-chlorophenyl)quinoxaline-5-carboxamide]	33	–
26000	26300	NC(=O)c1cccc(N)c1 [Compound 3-AB, 3-aminobenzamide]	33000	reduction of parasite growth compared to the control (T. cruzi epimastigotes [2]; 660 µM): approximately 60%; reduction of parasite growth compared to the control (T. cruzi epimastigotes [2]; 6.6 mM): approximately 60%; effect on T. cruzi epimastigote growth (T. cruzi epimastigotes [3]): able to reduce T. cruzi epimastigote growth; inhibition of differentiation of amastigotes to trypomastigotes (T. cruzi amastigotes): to a lesser extent
1400	1380	Cc1nc2c(c(=O)[nH]1)CSCC2 [DR2313, 2-methyl-1H,4H,5H,7H,8H-thiopyrano[4,3-d]pyrimidin-4-one]	–	–
230	224	CN(C)CC(=O)Nc1ccc2[nH]c(=O)c3ccccc3c2c1 [PJ-34, 2-(dimethylamino)-N-(6-oxo-5,6-dihydrophenanthridin-2-yl)acetamide]	–	–
1600	1620	O=c1[nH]c2ccccc2c2ccccc12 [Phenanthridinone, 5,6-dihydrophenanthridin-6-one]	560	–
1300	1260	Oc1nc(C2CC2)nc2c1CSCC2 [RF03876, 2-cyclopropyl-5H,7H,8H-thiopyrano[4,3-d]pyrimidin-4-ol]	–	–
25	25.7	CNCc1ccc(-c2[nH]c3cc(F)cc4c3c2CCNC4=O)cc1 [Rucaparib, 6-fluoro-2-{4-[(methylamino)methyl]phenyl}-3,10-diazatricyclo[6.4.1.0^{4,13}]trideca-1,4(13),5,7-tetraen-9-one]	–	–
